Source: article PMC12093266, “Synergistic action of two radical SAM enzymes in the biosynthesis of thuricin CD, a two-component sactibiotic” (Chemical Science, 2025)
Numbered stars: 1 amine (or outer) side, 2 acyl side, 3 side chain; on linkers, the order of the positions; unused ones are H or OH. Bridge positions count the residues as written; N and C are the ends. Square brackets hold non-standard residues; d marks the D form. Peptide text beside a SMILES is read from it. X3 = O=C([C@@](Cc1ccc(O)cc1)(N[*:1])[*:3])[*:2]; X5 = C[C@@H](O)[C@@](N[*:1])(C(=O)[*:2])[*:3]; X1 = C[C@@H](O)[C@](N[*:1])(C(=O)[*:2])[*:3]; X4 = O=C([C@](CO)(N[*:1])[*:3])[*:2]; X2 = C[C@](N[*:1])(C(=O)[*:2])[*:3]

How the values were obtained:
[1] = test system: Bacillus cereus; assay: Disk diffusion susceptibility test; assay type: cell-based; details: 5 μL of 100 μM peptide (each) on filter paper, BHI agar, 30 °C, 15-20 h
Method: In vitro susceptibility test
Briefly, the liquid Brain Heart Infusion (BHI) agar (3.2 % BHI, 1.5% agar) was cooled to 42 °C and seeded with 100 μL of dense overnight culture (approximately 10 8-109 CFU mL -1) of Bacillus cereus. […] Kanamycin and 30% isopropanol were used
Spot 4: 5 μL 0.1 mg/ml kanamycin; Spot 5: 5 μL 30% isopropanol.

[2] = test system: Bacillus cereus; assay type: cell-based; details: B. cereus in LB, 96-well plate, serial dilution, 30 °C, 16 h, OD600; lowest concentration with <10% OD increase over kanamycin well; HPLC-purified peptides in 30% isopropanol; '>' = no inhibition observed at that concentration
Method: To test whether the thuricin CD variant obtained in E. coli was bioactive, we performed disk diffusion susceptibility tests with trnα′ and trnβ′ using Bacillus cereus as a test strain. […]
the elution fraction (1: 200 (v/v) ratio), and the resulting solution was then kept overnight for digestion at 4 °C. The resulting solution was heat-inactivated at 95 °C for 10 min followed by freezing at -80 °C for 1 h, and was subjected to centrifugation (13000 × g for 15 min at 4 °C) to remove any precipitates. The resulting solutions containing TrnA or TrnB were directly used in downstream analysis or frozen at -80 °C […]
Production of trnα’ and trnβ’
The modified TrnA and TrnB solutions were mixed with GluC (2 mg/ml stock solution) in a 50:1 (v/v) ratio and the proteolytic reaction was proceeded at room temperature for 2hr. The reaction mixture was subsequently quenched by methanol, and was lyophilized after centrifugation to remove any protein precipitate. The resulting sample was then dissolved in 30% isopropanol and injected onto a reverse phase Phenomenex Aeris PEPTIDE XB-C18 column (250 x 10 mm, 5 μm). […]
as a positive and negative controls, respectively. […] The OD600 was read on a SP-Max 2300A plate reader. […]

Row | Compound | inhibition in disk diffusion test [1] | minimal inhibition concentration (MIC) [2] [µM]
1 | CC[C@H](C)[C@H](N)C(=O)NCC(=O)NCC(=O)N[C@@H](CC(N)=O)C(=O)N[C@@H](C)C(=O)N[C@@H](C)C(=O)N[C@H]1CS[C@](C(=O)N[C@@H](CC(C)C)C(=O)NCC(=O)O)([C@@H](C)O)NC(=O)[C@H](Cc2ccccc2)NC(=O)[C@H](C)NC(=O)[C@]2([C@@H](C)O)NC(=O)CNC(=O)[C@H](C(C)C)NC(=O)[C@H](CC(C)C)NC(=O)[C@]3(CO)NC(=O)CNC(=O)[C@H]([C@@H](C)CC)NC(=O)CNC(=O)[C@H](CCC(=O)O)NC(=O)[C@H](CO)NC(=O)[C@H]([C@@H](C)CC)NC(=O)[C@H](C(C)C)NC(=O)[C@H](CS3)NC(=O)[C@H](CO)NC(=O)CNC(=O)[C@H]([C@@H](C)CC)NC(=O)[C@H](CS2)NC(=O)CNC(=O)[C@H]([C@@H](C)CC)NC(=O)[C@H](C(C)C)NC1=O [trnα′] (H-IGGNAACVIGCIGSCVISEGIG[X4]LVG[X1]AF[X5]LG-OH; thioether 7-30, 11-27, 15-23; N-terminus and C-terminus assumed) | no activity | > 50
2 | CC(C)C[C@H](NC(=O)[C@H](Cc1ccccc1)NC(=O)[C@@]1(Cc2ccc(O)cc2)NC(=O)[C@H](CO)NC(=O)[C@H](C)NC(=O)[C@]2(C)NC(=O)[C@H](C)NC(=O)[C@H](Cc3ccccc3)NC(=O)[C@H](CCC(=O)O)NC(=O)[C@]3([C@@H](C)O)NC(=O)CNC(=O)[C@H](C(C)C)NC(=O)CNC(=O)CNC(=O)[C@H](CO)NC(=O)[C@H](C)NC(=O)[C@H](CC(C)C)NC(=O)[C@H](CS3)NC(=O)[C@H](C(C)C)NC(=O)[C@H]([C@@H](C)O)NC(=O)CNC(=O)[C@H](CS2)NC(=O)[C@H](C)NC(=O)CNC(=O)[C@H](C(C)C)NC(=O)[C@@H](NC(=O)[C@H](C)NC(=O)[C@@H](NC(=O)[C@H](Cc2c[nH]c3ccccc23)NC(=O)CNC(=O)CNC(=O)[C@@H](N)C(C)C)C(C)C)CS1)C(=O)O [trnβ′] (H-VGGWVACVGACGTVCLASGGVG[X1]EFA[X2]AS[X3]FL-OH; thioether 7-30, 11-27, 15-23; N-terminus and C-terminus assumed) | no activity | > 50
